# Measurements reported in patent US20110281802A1, “COMPOSITION FOR TREATMENT AND PREVENTION OF HAIR LOSS AND PREMATURE GRAYING OF HAIR” (Immudiagnostik AG, priority 2007, published 2011).
# Assays:
# Type in all cases: cell-based
# [1] = system: human anagen VI hair follicles; experiment: Hair shaft elongation of organ-cultured hair follicles, assay #1 (culture HF 429); conditions: for Hair growth compared with control (in words): p<0.05
# Description: Human anagen VI hair follicles were isolated from scalp skin obtained from three different individuals undergoing routine face-lift surgery. All experiments were performed according to Helsinki guidelines.
# Hair follicles were isolated as described (Philpott MP et al, Human hair growth in vitro; J Cell Science 1990, 97(Pt 3):463-71). Isolated HFs were maintained in supplemented, serum-free Williams E medium (Biochrom, Cambridge, UK) supplemented with 2 mMol/L L-glutamine (Invitrogen, Paisley, UK), 10 ng/mL hydrocortisone (Sigma-Aldrich, Taufkirchen, Germany), 10 μg/mL insulin (Sigma-Aldrich), and 1% antibiotic/antimycotic mixture (Gibco, Karlsruhe, Germany). Hair follicles were placed in a 24-well plate with 500 μL medium (day 0) and incubated in a CO2-incubator (5% CO2, 37° C.) over night without any treatment. The next day (day 1) medium was exchanged and test substance was added to each well (5 μL of stock solution was added to 495 μL culture medium). The medium or medium with test substance was changed every 48 hours.
# Assay #1 Culture HF429: Hair follicles were grown in the wells of a microtiter plate (3 follicles per well) and treated for 9 days with culture medium and test substance as indicated in FIG. 1. Thereafter, elongation, melanogenesis and hair cycle stage were determined.
# Hair shaft length measurements were performed every second day on individual hair follicles using a binocular microscope with an eyepiece measuring reticule. The length of the follicle was defined as the distance between the base of the bulb and the cut end of the hair fibre (Philpott MP et al, Human hair growth in vitro; J Cell Science 1990, 97(Pt 3):463-71).
# All data were analysed by two-tailed unpaired t-test (SPSS analysis software SPSS Inc., Chicago, USA). For determination of elongation, two outliers at top and bottom end of value range were eliminated; with the measurement of melanogenesis one outlier at both, top and bottom range, was eliminated. Results are given as mean value and standard error of measurement (SEM).
# [2] = system: human anagen hair follicles; experiment: Ki67/TUNEL staining, percentage of proliferating cells, assay #3; conditions: after 9 days of culture, Anagen only
# Description: Assay #3 Culture HF 446: Eight hair follicle cultures (3 follicles/well) were treated with various concentration of test substance as described for 2 days, followed by snap freezing and sectioning of two wells. Six wells were treated up to 9 days, then snap frozen and sectioned. The distribution of test substances and concentrations were as indicted in FIG. 3. The parameter measured after two days was proliferation/apoptosis, and the parameters measured after 9 days were elongation, proportion of cells in proliferation/apoptosis, and hair cycle stage
# After nine days, Ki67/TUNEL staining was performed and photos taken.
# Proliferating and resting cells as well as cells undergoing apoptosis were counted separately proximal Auber's line. Results are expressed as percentages. For Ki-67/TUNEL staining, fixed sections were incubated for 60 minutes in a solution comprising 30% TdT-enzyme (Chemicon International, Inc., Temecula, Calif., USA; CatNo S1707). 2 mL stop buffer (Chemicon International, Inc.; CatNo S7110), diluted in 68 mL distilled water, was added for 10 minutes to stop the reaction. This was followed by a pre-incubation for 20 minutes with 10% goat serum (Dako Cytomation, CatNo 50114121) and incubation with mouse-anti human Ki-67 antigen (Chemicon International, Inc., CatNo S7110) 1:20 in PBS with 2% goat serum. The fixed section was then washed in PBS, treated with anti-digoxigenin antibody (Chemicon International, Inc., CatNo S7110) (59DI Antibody solution and 5601 Stop solution, 30 minutes) and goat anti-mouse-IgG-rhodamine red (Jackson Immuno Research, Suffolk, UK; CatNo 115-295-062), 1:200 in PBS with 2% goat serum. After washes with PBS, counterstaining with DAPI™ ([…]) (Roche, Basel, Switzerland; CatNo 236276) and further washes with PBS and mounting using Fluoromount (Southern Biotech, Birmingham, Ala., USA; CatNo 0100-01).
# After nine days, Ki67/TUNEL staining was performed and photos were taken. In anagen hair follicles, proliferating cells and cells undergoing apoptosis were counted separately proximal Auber's line. Results are expressed as percentages. […] The results are summarized in Table 6 and FIG. 9 showing the mean percentage of Ki6 7 positive cells with SEM
# human hair follicles = experiment: Hair cycle staging of cultured hair follicles (assays #1, #2, #3)
# Description: (§1) Photodocuments from the Fontana Masson staining were used for hair follicle staging according to previously well-defined morphological criteria (Stenn K S et al, Controls of Hair Follicle Cycling; Physiol Rev 2001, 81:449-494, Müller-Röver S et al, A Comprehensive Guide for the Accurate Classification of Murine Hair Follicles in Distinct Hair Cycle Stages; J Invest Dermatol 2001, 117:3-15). The percentage of hair follicles in anagen, early, mid and late catagen was determined.
# as §1, with “determined in the different assays.” for “determined.”
substance,measurement,setting,value
thymulin,Mean elongation with thymulin in percent compared to day 0,"[1]; 10 pg/mL, Day 0",0%
same,Mean elongation with thymulin in percent compared to day 0,"[1]; 10 pg/mL, Day 1",13.19%
same,Mean elongation with thymulin in percent compared to day 0,"[1]; 10 pg/mL, Day 3",37.58%
same,Mean elongation with thymulin in percent compared to day 0,"[1]; 10 pg/mL, Day 5",64.05%
same,Mean elongation with thymulin in percent compared to day 0,"[1]; 10 pg/mL, Day 7",75.10%
same,Mean elongation with thymulin in percent compared to day 0,"[1]; 10 pg/mL, Day 9",90.98%
same,Mean elongation with thymulin in percent compared to day 0,"[1]; 100 pg/mL, Day 0",0%
same,Mean elongation with thymulin in percent compared to day 0,"[1]; 100 pg/mL, Day 1",11.33%
same,Mean elongation with thymulin in percent compared to day 0,"[1]; 100 pg/mL, Day 3",31.50%
same,Mean elongation with thymulin in percent compared to day 0,"[1]; 100 pg/mL, Day 5",53.75%
same,Mean elongation with thymulin in percent compared to day 0,"[1]; 100 pg/mL, Day 7",68.76%
same,Mean elongation with thymulin in percent compared to day 0,"[1]; 100 pg/mL, Day 9",83.13%
same,Hair growth compared with control (in words),[1]; 100 pg/mL,significant lack of hair growth
same,Mean percentage of Ki67-positive cells,[2]; 10 pg/mL,31.58 percentage
same,Mean percentage of Ki67-positive cells,[2]; 100 pg/mL,35.75 percentage
same,Proportion of HFs in anagen compared with control groups (in words),"human hair follicles; 10 pg and 100 pg/mL, three assays, 9-day treatment",consistently a higher proportion of HFs in anagen than control groups
Thymosin beta-4 [TB4],Mean elongation in % compared to day 1,"[1]; 100 ng/mL, Day 0",0.00%
same,Mean elongation in % compared to day 1,"[1]; 100 ng/mL, Day 1",12.26%
same,Mean elongation in % compared to day 1,"[1]; 100 ng/mL, Day 3",35.49%
same,Mean elongation in % compared to day 1,"[1]; 100 ng/mL, Day 5",49.79%
same,Mean elongation in % compared to day 1,"[1]; 100 ng/mL, Day 7",61.36%
same,Mean elongation in % compared to day 1,"[1]; 100 ng/mL, Day 9",74.11%
same,Hair growth compared with control (in words),[1]; 100 ng/mL,significant lack of hair growth
same,Mean elongation in % compared to day 1,"[1]; 1000 ng/mL, Day 0",0.00%
same,Mean elongation in % compared to day 1,"[1]; 1000 ng/mL, Day 1",14.20%
same,Mean elongation in % compared to day 1,"[1]; 1000 ng/mL, Day 3",39.31%
same,Mean elongation in % compared to day 1,"[1]; 1000 ng/mL, Day 5",66.20%
same,Mean elongation in % compared to day 1,"[1]; 1000 ng/mL, Day 7",90.23%
same,Mean elongation in % compared to day 1,"[1]; 1000 ng/mL, Day 9",103.17%
same,Mean percentage of Ki67-positive cells,[2]; 100 ng/mL,39.30 percentage
same,Mean percentage of Ki67-positive cells,[2]; 1000 ng/mL,33.14 percentage
same,Proportion in catagen compared to control (in words),"human hair follicles; 100 ng, Assay #1 and #3",higher proportion of cells in catagen compared to control
same,Proportion in the stage of anagen compared with controls (in words),"human hair follicles; 1000 ng/mL, after nine days",consistently more cells in the stage of anagen
